Laboratory results taken from patent publication US8933038B2, “Method of treating cancer with an HLA-A*3303-restricted WT1 peptide and pharmaceutical composition comprising the same” (International Institute of Cancer Immunology, Inc., priority 2006, dated 2015).
Ends that are not written are not given here.

Tests used:
human cells = details: in vitro, HLA-A*2402, Non-patent Document 12; cited from earlier work
[1] = tested on: B-LCL cells pulsed with the same WT1 peptide (BLCL-Ps)
Description: Peripheral blood mononuclear cells (PBMCs) were separated by Ficoll-Hypaque gradient density centrifugation method from peripheral blood that had been collected from an HLA-A*3303-positive healthy donor (HLA-A*3303/0207). The PBMCs were then seeded to a 24-well cell culture plate at the density of about 1×10^7 in RPMI 1640 medium containing 10% FCS, and a culture supernatant of B95-8 cells (cells producing EB virus) were added. They were cultured at 37° C. with 5% CO2 for about 1 month. B-LCL cells transformed with EB virus, which are B-cell tumor cells, were obtained. […] B-LCL cells were pulsed by incubating them with 20 μg/ml of WT1337, WT1364, WT1367 or WT1409 for 2 hours, and irradiated with 80 Gy of radiation. The resulting B-LCL cells (hereinafter referred to as B-LCL cells pulsed with a WT1 peptide) were used as antigen-presenting cells for the following experiments.
(§1) 3×10^6 of PBMCs (HLA-A*3303/1101) were cultured in a 24-well cell culture plate in complete medium (450 RPMI, 45% AMI-V medium and 10% human AB serum) containing 20 μg/ml of WT1337, WT1364, WT1367 or WT1409 at 37° C. with 5% CO2 for 1 week to obtain responding cells. 2×10^6 of the resulting responding cells were cocultured with 1×10^6 of the B-LCL cells pulsed with the same WT1 peptide in complete medium for 1 week (first stimulation). The PBMCs were cocultured with the B-LCL cells pulsed with the WT1 peptide three more times (second to fourth stimulations) under the conditions under which 20 IU/ml (final concentration) of IL-2 was added as follows: second stimulation: two times every other day from 3 days after the initiation of stimulation; third and fourth stimulations: three times at intervals of one day from the day after the initiation of stimulation. The resulting cells were concentrated using Negative Selection Columns Gravity Feed Kit (StemSp) so that the ratio of CD8-positive T cells became about 800, and cocultured with the B-LCL cells pulsed with the WT1 peptide (fifth stimulation). […]
(§2) The cytotoxic activity of CTLs was measured using ^51Cr release assay. […] The amounts of ^51Cr released into the supernatants were measured using a liquid scintillation counter. The cytotoxic activity (%) was determined using the following formula: (^51Cr release in supernatant of sample−Spontaneous ^51Cr release)/(Maximum ^51Cr release−Spontaneous ^51Cr release)×100 wherein Spontaneous ^51Cr release is ^51Cr release observed when the target cells into which ^51Cr had been incorporated were cultured alone under the same condition, and Maximum ^51Cr release is ^51Cr release observed when the target cells into which ^51Cr had been incorporated were completely lysed using 1% Triton X-100.

[2] = tested on: B-LCL expressing WT1 (B-LCL-WT1)
Description: 3×10^6 of PBMCs (HLA-A*3303/1101) were cultured in a 24-well cell culture plate in complete medium (450 RPMI, 45% AMI-V medium and 10% human AB serum) containing 20 μg/ml of WT1337, WT1364, WT1367 or WT1409 at 37° C. with 5% CO2 for 1 week to obtain responding cells. 2×10^6 of the resulting responding cells were cocultured with 1×10^6 of the B-LCL cells pulsed with the same WT1 peptide in complete medium for 1 week (first stimulation). […]
as §2
The cytotoxic activity of CTLs induced with WT1367 against B-LCL cell expressing WT1 was determined using the method as described above. […]

[3] = tested on: human peripheral blood mononuclear cells having HLA-A*0201; details: human PBMCs having HLA-A*0201 stimulated with peptide; Non-patent Document 11; cited from earlier work

Description for TF-1 cells: as §1, §2
The cytotoxic activity of CTLs induced with WT1364, WT1367 or WT1409 against TF-1 cells that are tumor cells expressing a WT1 gene (HLA-A*3303-positive) was determined using the method as described above. […]

Row | Sequence | cytotoxic activity (specific lysis) of CTLs induced with the peptide [1] | cytotoxic activity (specific lysis) of CTLs induced with the peptide (TF-1 cells) | also measured
1 | CMTWNQMNL (listed as Homo sapiens) [WT1235] | – | – | induction of WT1-specific CTLs (human cells): WT1-specific CTLs (TAK-1) are induced
2 | FSRSDQLKR [WT1364] | damage specifically BLCL-Ps | have a cytotoxic activity against the cell expressing a WT1 gene exogenously | –
3 | LSHLQMHSR [WT1337] | damage specifically BLCL-Ps | – | –
4 | SDQLKRHQR [WT1367] | damage specifically BLCL-Ps | have a cytotoxic activity against the cell expressing a WT1 gene exogenously | cytotoxic activity (specific lysis) of CTLs induced with the peptide [2]: damage only the cell which is HLA-A*3303-positive and expresses WT1
5 | SLGEQQYSV (listed as Homo sapiens) [WH187 peptide] | – | – | induction of WT1-specific CTLs [3]: WT1-specific CTLs are induced
6 | TSEKPFSCR [WT1409] | damage specifically BLCL-Ps | have a cytotoxic activity against the cell expressing a WT1 gene exogenously | –
